Laboratory results: patent publication US20260315434A1, “USE OF GUAIACOL SESQUITERPENE LACTONE DERIVATIVES” (NANJING UNIVERSITY OF CHINESE MEDICINE, priority 2023, published 2026)
Values after ≈ are worked out from the molar mass of the structure shown.

What was measured:
[1] = Water solubility testing of compounds (HPLC); settings: deionized water, 37 °C
[2] = Conversion (release) of prodrug salts to parent compound in HEPES buffer pH 7.4; type: in vitro ADME; settings: hepes buffer, pH 7.4, HEPES pH 7.4, 37 °C, read-out: Release rate (conversion to Compound 1)
Procedure: (§1) Pharmaceutically acceptable salts of guaiane-type sesquiterpene lactone derivatives were selected and evaluated for their conversion rates to Compound 1 and Compound 83 in plasma and HEPES buffer, with results shown in Tables 2-1, 2-2, 3-1, and 3-2.
Experimental Method: Preparation of HEPES 7.4 Solution: Dissolve 1.6 g NaCl, 0.074 g KCl, 0.027 g Na2HPO4, 0.2 g glucose, and 1 g 4-(2-Hydroxyethyl)piperazine-1-ethanesulfonic acid (HEPES) solution in 90 mL distilled water. Adjust the pH to 7.4 using 0.5 M NaOH, then dilute to a final volume 100 mL with distilled water.
(§2) Sample Analysis: Dissolve 0.6 mg of the compound in 250 μL of deionized water separately. Add 250 μL of mouse serum or HEPES 7.4 solution to the sample, incubate at a constant temperature of 37° C., and collect samples at different time points. Pipette 20 μL of the sample to an EP tube, add 60 μL of methanol, vortex to mix thoroughly, and centrifuge at 12,000 rpm at 4° C. for 10 min. At 1 h, 2 h, 4 h, 8 h, and 12 h respectively, collect the supernatant for HPLC analysis. Inject 10 μL of sample and record the corresponding peak areas. Chromatographic conditions: Hanbang C18 column (4.6×250 mm, 5 μm); mobile phase: acetonitrile: […] ammonium formate solution=60:40; flow rate 1.0 mL/min; detection wavelength 210 nm; column temperature 30° C.

[3] = Conversion (release) of prodrug salts to parent compound in mouse plasma; type: in vitro ADME; settings: mouse, plasma, 37 °C, read-out: Release rate (conversion to Compound 1)
Procedure: as §1
Plasma Preparation: Collect mouse plasma into an EP tube pre-loaded with sodium heparin, centrifuge at 8000 rpm for 10 minutes at 4° C., and then collect the supernatant.
as §2

T cells / MDSCs = assay: Promotion of T cell proliferation in a co-culture model of MDSCs and T cells; type: cell-based, mouse; settings: for activation at 1 µM: Mus musculus, T-cell, 12 h, read-out: T-cell proliferation rate (%), 1 μM, MDSCs treated 12 hours, co-culture of MDSCs and T cells, compared to the control group
Procedure: Under sterile conditions, the tibia was removed, both ends of the bone were cut, and bone marrow was repeatedly flushed into a 15 mL centrifuge tube using a 1 mL syringe filled with culture medium. Centrifuge at 1600 rpm for 5 min to collect bone marrow cells. […] The spleen cell suspension was then transferred into a 15 mL centrifuge tube. Centrifuge at 1600 rpm for 5 min to collect T cells. Wash twice with 1×PBS. Resuspend the centrifuged T cells in 1 mL PBS and add 1 mL of 10 μM CFDA-SE solution. Incubate at room temperature for 8 min. […] After drug administration, collect MDSC cells into centrifuge tubes. Centrifuge at 1600 rpm for 5 min, remove supernatant, resuspend in 1 mL fresh medium, and plate. Add 1 mL stimulated activated T cells (1:1 ratio) for 48 h co-culture. After incubation, collect cells into centrifuge tubes, wash twice with PBS, and incubate with Fc antibody at room temperature in the dark for 10 min. Add CD3-labeled flow cytometry antibody and incubate at 4° C. in the dark for 30 min. After incubation, wash cells with PBS, resuspend in 300 μL PBS, and analyze by flow cytometry.

Compound: CC(C)N(C[C@@H]1C(=O)O[C@H]2[C@H]1CC[C@@]1(C)C[C@]13CC[C@@](C)(O)[C@H]23)C(C)C [Compound 12]
- Water-solubility [1]: 0.802 mg/mL

Compound: C[C@@]12CC[C@@H]3[C@H](OC(=O)[C@H]3CN3CCC3)[C@@H]3[C@]1(CC[C@@]3(C)O)C2 [Compound 14]
- Water-solubility [1]: 0.460 mg/mL

Compound: C[C@@]12CC[C@@H]3[C@H](OC(=O)[C@H]3CN3CCC(N4CCCCC4)CC3)[C@@H]3[C@]1(CC[C@@]3(C)O)C2 [Compound 16]
- Water-solubility [1]: 0.285 mg/mL

Compound: C[C@@]12CC[C@@H]3[C@H](OC(=O)[C@H]3CN3CCC(N4CCOCC4)CC3)[C@@H]3[C@]1(CC[C@@]3(C)O)C2 [Compound 17]
- Water-solubility [1]: 0.942 mg/mL

Compound: C[C@@]12CC[C@@H]3[C@H](OC(=O)[C@H]3CN3CCCCC3)[C@@H]3[C@]1(CC[C@@]3(C)O)C2 [Compound 24]
- degraded at 1 h [2]: 6.8%
- degraded at 2 h [2]: 15.1%
- degraded at 4 h [2]: 26.7%
- degraded at 8 h [2]: 42.8%
- degraded at 12 h [2]: 54%
- metabolised at 1 h [3]: 7.7%
- metabolised at 2 h [3]: 17.1%
- metabolised at 4 h [3]: 27.7%
- metabolised at 8 h [3]: 47.8%
- metabolised at 12 h [3]: 57.9%
- Water-solubility [1]: 300.5 mg/mL

Compound: C[C@@]12CC[C@@H]3[C@H](OC(=O)[C@H]3CN3CCOCC3)[C@@H]3[C@]1(CC[C@@]3(C)O)C2 [Compound 25]
- degraded at 1 h [2]: 6.8%
- degraded at 2 h [2]: 14.1%
- degraded at 4 h [2]: 26.1%
- degraded at 8 h [2]: 42.8%
- degraded at 12 h [2]: 51.8%
- metabolised at 1 h [3]: 6.8%
- metabolised at 2 h [3]: 14.1%
- metabolised at 4 h [3]: 25.7%
- metabolised at 8 h [3]: 43.8%
- metabolised at 12 h [3]: 51.8%
- solubility ([1]; water, Water-solubility): 342 mg/mL (≈ 979 mM)

Compound: CCCN(CCC)C[C@@H]1C(=O)O[C@H]2[C@H]1CC[C@@]1(C)C[C@]13CC[C@@](C)(O)[C@H]23 [Compound 29]
- degraded at 1 h [2]: 6.8%
- degraded at 2 h [2]: 14.2%
- degraded at 4 h [2]: 24.6%
- degraded at 8 h [2]: 40.2%
- degraded at 12 h [2]: 49.8%
- metabolised at 1 h [3]: 6.8%
- metabolised at 2 h [3]: 14.2%
- metabolised at 4 h [3]: 24.6%
- metabolised at 8 h [3]: 40.2%
- metabolised at 12 h [3]: 49%
- Water-solubility [1]: 289.5 mg/mL

Compound: CCCCN(CCCC)C[C@@H]1C(=O)O[C@H]2[C@H]1CC[C@@]1(C)C[C@]13CC[C@@](C)(O)[C@H]23 [Compound 30]
- degraded at 1 h [2]: 6.6%
- degraded at 2 h [2]: 14.6%
- degraded at 4 h [2]: 23.8%
- degraded at 8 h [2]: 40.8%
- degraded at 12 h [2]: 49.8%
- metabolised at 1 h [3]: 6.6%
- metabolised at 2 h [3]: 13.6%
- metabolised at 4 h [3]: 23.8%
- metabolised at 8 h [3]: 40.8%
- metabolised at 12 h [3]: 48.8%
- Water-solubility [1]: 228.4 mg/mL

Compound: CC(C)N(C[C@@H]1C(=O)O[C@H]2[C@H]1CC[C@@]1(C)C[C@]13CC[C@@](C)(O)[C@H]23)C(C)C [Compound 31]
- degraded at 1 h [2]: 6.7%
- degraded at 2 h [2]: 14%
- degraded at 4 h [2]: 23%
- degraded at 8 h [2]: 41.2%
- degraded at 12 h [2]: 49.5%
- metabolised at 1 h [3]: 6.5%
- metabolised at 2 h [3]: 13.9%
- metabolised at 4 h [3]: 24.4%
- metabolised at 8 h [3]: 40.2%
- metabolised at 12 h [3]: 48.5%
- Water-solubility [1]: 254.6 mg/mL

Compound: C[C@@]12CC[C@@H]3[C@H](OC(=O)[C@H]3CN3CC4CCCC4C3)[C@@H]3[C@]1(CC[C@@]3(C)O)C2 (stereo partly shown) [Compound 32]
- degraded at 1 h [2]: 6.9%
- degraded at 2 h [2]: 15.4%
- degraded at 4 h [2]: 26.2%
- degraded at 8 h [2]: 42.2%
- degraded at 12 h [2]: 51.2%
- metabolised at 1 h [3]: 6.3%
- metabolised at 2 h [3]: 14.4%
- metabolised at 4 h [3]: 25.2%
- metabolised at 8 h [3]: 43.2%
- metabolised at 12 h [3]: 51.4%
- Water-solubility [1]: 100.8 mg/mL

Compound: C[C@@]12CC[C@@H]3[C@H](OC(=O)[C@H]3CN3CCC3)[C@@H]3[C@]1(CC[C@@]3(C)O)C2 [Compound 33]
- degraded at 1 h [2]: 6.9%
- degraded at 2 h [2]: 15.8%
- degraded at 4 h [2]: 26%
- degraded at 8 h [2]: 41.8%
- degraded at 12 h [2]: 51.1%
- metabolised at 1 h [3]: 6.9%
- metabolised at 2 h [3]: 14.8%
- metabolised at 4 h [3]: 26%
- metabolised at 8 h [3]: 42.8%
- metabolised at 12 h [3]: 50.7%
- Water-solubility [1]: 145.5 mg/mL

Compound: C[C@@]12CC[C@@H]3[C@H](OC(=O)[C@H]3CN3CCC4(CCCC4)CC3)[C@@H]3[C@]1(CC[C@@]3(C)O)C2 [Compound 34]
- degraded at 1 h [2]: 7%
- degraded at 2 h [2]: 16.2%
- degraded at 4 h [2]: 27.6%
- degraded at 8 h [2]: 43.6%
- degraded at 12 h [2]: 54.4%
- metabolised at 1 h [3]: 7.8%
- metabolised at 2 h [3]: 17.2%
- metabolised at 4 h [3]: 28.6%
- metabolised at 8 h [3]: 47.6%
- metabolised at 12 h [3]: 58.8%
- Water-solubility [1]: 128.6 mg/mL

Compound: C=C1C(=O)O[C@H]2[C@H]1CCC(C)=C1CC[C@@](C)(OC(=O)N(C)C)[C@@H]12 [Compound 80]
- activation at 1 µM (T cells / MDSCs): 20 to 40%

Compound: C=C1C(=O)O[C@H]2[C@H]1CCC(C)=C1CC[C@@](C)(OC(=O)N(CC)CC)[C@@H]12 [Compound 81]
- activation at 1 µM (T cells / MDSCs): 20 to 40%

Compound: C=C1C(=O)O[C@H]2[C@H]1CCC(C)=C1CC[C@@](C)(OC(=O)N3CCC(C)CC3)[C@@H]12 [Compound 84]
- activation at 1 µM (T cells / MDSCs): 20 to 40%

Compound: C=C1C(=O)O[C@H]2[C@H]1CCC(C)=C1CC[C@@](C)(OC(=O)N3CCN(C)CC3)[C@@H]12 [Compound 85]
- activation at 1 µM (T cells / MDSCs): 0 to 20%

Compound: C=C1C(=O)O[C@H]2[C@H]1CCC(C)=C1CC[C@@](C)(OC(=O)N3CCN(CC)CC3)[C@@H]12 [Compound 86]
- activation at 1 µM (T cells / MDSCs): 20 to 40%

Compound: C=C1C(=O)O[C@H]2[C@H]1CCC(C)=C1CC[C@@](C)(OC(=O)N3CCOCC3)[C@@H]12 [Compound 87]
- activation at 1 µM (T cells / MDSCs): > 40%

Compound: C=C1C(=O)O[C@H]2[C@H]1CCC(C)=C1CC[C@@](C)(OC(=O)NCC(C)C)[C@@H]12 [Compound 88]
- activation at 1 µM (T cells / MDSCs): 20 to 40%

Compound: C=C1C(=O)O[C@H]2[C@H]1CCC(C)=C1CC[C@@](C)(OC(=O)NCC(F)F)[C@@H]12 [Compound 89]
- activation at 1 µM (T cells / MDSCs): 20 to 40%

Compound: C=C1C(=O)O[C@H]2[C@H]1CCC(C)=C1CC[C@@](C)(OC(=O)N(C)CCC)[C@@H]12 [Compound 90]
- activation at 1 µM (T cells / MDSCs): 20 to 40%

Compound: C=C1C(=O)O[C@H]2[C@H]1CCC(C)=C1CC[C@@](C)(OC(=O)N(CC)CCC)[C@@H]12 [Compound 91]
- activation at 1 µM (T cells / MDSCs): 20 to 40%

Compound: C=C1C(=O)O[C@H]2[C@H]1CCC(C)=C1CC[C@@](C)(OC(=O)NCCCN3CCOCC3)[C@@H]12 [Compound 92]
- activation at 1 µM (T cells / MDSCs): 20 to 40%

Compound: C=C1C(=O)O[C@H]2[C@H]1CCC(C)=C1CC[C@@](C)(OC(=O)NCCCN3CCN(C)CC3)[C@@H]12 [Compound 93]
- activation at 1 µM (T cells / MDSCs): 20 to 40%

Compound: C=C1C(=O)O[C@H]2[C@H]1CCC(C)=C1CC[C@@](C)(OC(=O)N3CCC(N4CCOCC4)CC3)[C@@H]12 [Compound 94]
- activation at 1 µM (T cells / MDSCs): 20 to 40%

Compound: C=C1C(=O)O[C@H]2[C@H]1CCC(C)=C1CC[C@@](C)(OC(=O)NCCN3CCN(C)CC3)[C@@H]12 [Compound 95]
- activation at 1 µM (T cells / MDSCs): 20 to 40%

Compound: CC1=C2CC[C@@](C)(OC(=O)N3CCCCC3)[C@@H]2[C@H]2OC(=O)[C@@H](CN3CCCC3)[C@@H]2CC1 [Compound 96]
- activation at 1 µM (T cells / MDSCs): 0 to 20%

Compound: CC1=C2CC[C@@](C)(OC(=O)N3CCCCC3)[C@@H]2[C@H]2OC(=O)[C@@H](CN(C)C)[C@@H]2CC1 [Compound 97]
- activation at 1 µM (T cells / MDSCs): 0 to 20%

Compound: CC1=C2CC[C@@](C)(OC(=O)N3CCCC3)[C@@H]2[C@H]2OC(=O)C(CN3CCCC3)[C@@H]2CC1 (stereo partly shown) [compound 104]
- T-cell proliferation rate (%) (T cells / MDSCs; 1 μM, MDSCs treated 12 hours, co-culture of MDSCs and T cells, compared to the control group): + (T-cell proliferation rate within the 0-20% range compared to the control group)
